≈ marks a conversion by molar mass, not a printed value.
How the values were obtained:
Test in all cases: In vitro antifungal activity, microbroth dilution (MIC)
Assay type in all cases: cell-based
[1] = system: C. parapsilosis ATCC 22019; settings: Lodderomyces parapsilosis, ATCC22019; C. parapsilosis ATCC 22019; 35 °C, 24 h; read-out: MIC
Protocol: (§1) The in vitro antifungal screening results of synthesized compounds was evaluated against three fungal strains: C. parapsilosis ATCC 22019, C. utilis 84, and C. glabrata 61L are summarized in Table 1.
(§2) The in vitro antifungal activity of the target compounds was measured by means of the minimal inhibitory concentrations (MIC) with fluconazole as the control drug. Procedure was carried out by the microbroth dilution method in 96-well plates according to the recommendations of the Clinical and Laboratory Standards Institute. The detailed information was reported previously. The investigated pathogenic species included C. parapsilosis ATCC 22019, C. utilis 84 and C. glabrata 61. The sensitivity was evaluated visually, after the incubation at 35 °C for 24 h and the value was compared with the growth density in the reference culture without the sample. Each test was conducted in triplicate.

C. utilis 84 = settings: Williopsis jadinii; C. utilis 84; 35 °C, 24 h; read-out: MIC
Protocol: as §1, §2

C. glabrata 61L = settings: Nakaseomyces glabratus; C. glabrata 61L; 35 °C, 24 h; read-out: MIC
Protocol: as §1, §2

MIC [1]: 2 mg/L (≈ 6.53 µM) | MIC (C. utilis 84): 2 mg/L (≈ 6.53 µM) | MIC (C. glabrata 61L): 8 mg/L (≈ 26.1 µM)
Structure (SMILES): OC(Cn1cncn1)(Cn1cncn1)c1ccc(F)cc1F [Fluconazole, reference compound]

Reference: publication PMC9573696, “Experimental Examination of Solubility and Lipophilicity as Pharmaceutically Relevant Points of Novel Bioactive Hybrid Compounds” (Molecules, 2022)
